What all share (format): biochemical
One assay deals with T1, JAK3 (Homo sapiens, UniProt P52333).
T1 construct: All four purified enzymes contain only the catalytic domain; His (N); purchased Carna Biosciences, Inc; host or cells: baculovirus expression system
In words: JAK3 kinase assay (HTRF, inhibition of phosphorylation of a synthetic peptide). The following applies: catalytic domain, His-tag; 2 μM ATP (Km); read-out: JAK3 kinase inhibitory activity (EC50). The gist of the method: (§1)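 Baculovirus-expressed catalytic domains (GST-JAK1 aa 850-1154, GST-TYK2 aa 871-1187, His-JAK2, His-JAK3) phosphorylate 1 μM biotin-TK peptide 20-30 min at RT in 50 mM Hepes pH 7.0 with ATP at Km: JAK1 7 μM, JAK2 4 μM, JAK3 2 μM, TYK2 13 μM; 0.75% DMSO. Stopped with EDTA, HTRF read overnight.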
A general note: Time-resolved FRET reads energy transfer from a long-lived donor to a nearby acceptor.

Another assay addresses T2, TYK2 (Homo sapiens, UniProt P29597).
T2 construct: JAK1 (aa 850-1154) and TYK2 (aa 871-1187) are expressed with an N-terminally fused GST-tag; GST (N); purchased Carna Biosciences, Inc; host or cells: baculovirus expression system
T2 sequence (P29597 871-1187): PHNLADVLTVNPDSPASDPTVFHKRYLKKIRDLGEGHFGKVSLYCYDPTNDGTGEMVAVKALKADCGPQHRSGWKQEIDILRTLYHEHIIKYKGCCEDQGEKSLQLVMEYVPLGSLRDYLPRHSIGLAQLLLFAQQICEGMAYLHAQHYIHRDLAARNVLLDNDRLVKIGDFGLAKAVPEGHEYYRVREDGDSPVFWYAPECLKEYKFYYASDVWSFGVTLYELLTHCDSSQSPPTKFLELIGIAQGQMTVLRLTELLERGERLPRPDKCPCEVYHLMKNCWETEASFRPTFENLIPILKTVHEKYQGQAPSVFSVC
As to the kind of experiment: TYK2 kinase assay (HTRF, inhibition of phosphorylation of a synthetic peptide). The settings on record: catalytic domain aa 871-1187, GST-tag; 13 μM ATP (Km); read-out: TYK2 kinase inhibitory activity (EC50). The gist of the method: as §1

For a further assay, the target named is T3, JAK2 (Homo sapiens, UniProt O60674).
T3 construct: All four purified enzymes contain only the catalytic domain; His (N); purchased Carna Biosciences, Inc; host or cells: baculovirus expression system
T3 sequence (O60674 849-1124 limits assumed): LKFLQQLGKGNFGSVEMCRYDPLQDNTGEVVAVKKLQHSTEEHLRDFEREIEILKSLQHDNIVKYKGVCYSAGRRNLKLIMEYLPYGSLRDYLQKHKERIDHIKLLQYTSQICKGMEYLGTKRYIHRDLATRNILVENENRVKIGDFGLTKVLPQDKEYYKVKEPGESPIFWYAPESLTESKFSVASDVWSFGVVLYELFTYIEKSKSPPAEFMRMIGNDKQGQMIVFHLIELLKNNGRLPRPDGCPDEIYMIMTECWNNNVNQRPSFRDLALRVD
In words: JAK2 kinase assay (HTRF, inhibition of phosphorylation of a synthetic peptide). The following applies: catalytic domain, His-tag; 4 μM ATP (Km); read-out: JAK2 kinase inhibitory activity (EC50). The gist of the method: as §1

The target of a further assay is T4, JAK1 (Homo sapiens, UniProt P23458).
T4 construct: JAK1 (aa 850-1154) and TYK2 (aa 871-1187) are expressed with an N-terminally fused GST-tag; GST (N); purchased Carna Biosciences, Inc; host or cells: baculovirus expression system
T4 sequence (P23458 850-1154): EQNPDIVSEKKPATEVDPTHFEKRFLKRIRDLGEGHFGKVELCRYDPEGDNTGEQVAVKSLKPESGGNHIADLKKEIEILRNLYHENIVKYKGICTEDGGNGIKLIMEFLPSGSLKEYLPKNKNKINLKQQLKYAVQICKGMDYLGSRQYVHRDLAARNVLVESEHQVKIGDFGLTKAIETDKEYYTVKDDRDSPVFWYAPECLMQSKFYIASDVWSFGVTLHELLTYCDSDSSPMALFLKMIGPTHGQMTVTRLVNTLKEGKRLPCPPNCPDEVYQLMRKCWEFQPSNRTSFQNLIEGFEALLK
In words: JAK1 kinase assay (HTRF, inhibition of phosphorylation of a synthetic peptide). The following applies: catalytic domain aa 850-1154, GST-tag; 7 μM ATP (Km); read-out: JAK1 kinase inhibitory activity (EC50). The gist of the method:
as §1

Each structure is given as a SMILES string. Where only a bound is given, the exact number is not on record here.

T1 sequence (P52333 822-1111 limits assumed): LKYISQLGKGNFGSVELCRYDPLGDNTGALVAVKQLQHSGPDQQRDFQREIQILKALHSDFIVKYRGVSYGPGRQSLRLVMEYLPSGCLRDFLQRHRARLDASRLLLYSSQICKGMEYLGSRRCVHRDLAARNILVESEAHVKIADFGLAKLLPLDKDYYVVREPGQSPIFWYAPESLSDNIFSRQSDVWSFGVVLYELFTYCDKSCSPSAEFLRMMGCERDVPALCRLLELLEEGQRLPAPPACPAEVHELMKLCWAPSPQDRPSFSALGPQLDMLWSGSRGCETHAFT

What is called EC50 is the midpoint of the concentration-response curve. Consider `O=C(Nc1ccccc1)N1CCCN(c2ncnc3[nH]ccc23)CC12CC2` [Example 90, N-phenyl-5-(7H-pyrrolo[2,3-d]pyrimidin-4-yl)-5,9-diazaspiro[2.6]nonane-9-carboxamide], for which the EC50 at JAK3 is 0.1 to 1 µM; at TYK2, over 1 µM; on JAK2 it was 0.1 to 1 µM; on JAK1, under 0.1 µM.

Take `NS(=O)(=O)c1cccc(C(=O)N2CCN(c3ncnc4[nH]ccc34)CC3(CC3)C2)c1` [Example 73, 3-[5-(7H-pyrrolo[2,3-d]pyrimidin-4-yl)-5,8-diazaspiro[2.6]nonane-8-carbonyl]benzenesulfonamide]: the EC50 at JAK3 is 0.1 to 1 µM; at TYK2, over 1 µM; on JAK2, 0.1 to 1 µM; on JAK1, 0.1 to 1 µM.

With `O=C(Cc1ccc(Br)cc1)N1CCN(c2ncnc3[nH]ccc23)CC2(CC2)C1` [Example 264, 2-(4-bromophenyl)-1-[5-(7H-pyrrolo[2,3-d]pyrimidin-4-yl)-5,8-diazaspiro[2.6]nonan-8-yl]ethanone], the EC50 on JAK3 was under 0.1 µM; on TYK2 it was 0.1 to 1 µM; on JAK2, under 0.1 µM; on JAK1, under 0.1 µM.

For the molecule `O=C(c1cc2ccccc2s1)N1CCN(c2ncnc3[nH]ccc23)CCC12CC2` [Example 46, benzothiophen-2-yl-[6-(7H-pyrrolo[2,3-d]pyrimidin-4-yl)-6,9-diazaspiro[2.6]nonan-9-yl]methanone], the EC50 is over 1 µM at JAK3, over 1 µM on TYK2, 0.1 to 1 µM on JAK2 and 0.1 to 1 µM at JAK1.

On to `S=C(Nc1ccccc1)N1CCCN(c2ncnc3[nH]ccc23)CC12CC2` [Example 91, N-phenyl-5-(7H-pyrrolo[2,3-d]pyrimidin-4-yl)-5,9-diazaspiro[2.6]nonane-9-carbothioamide], for which the EC50 at JAK3 is 0.1 to 1 µM; on TYK2, over 1 µM; at JAK2 it was under 0.1 µM; at JAK1, under 0.1 µM.

Take `N#CC1(C(=O)N2CCN(c3ncnc4[nH]ccc34)CC3(CC3)C2)CCOCC1` [Example 41, 4-[5-(7H-pyrrolo[2,3-d]pyrimidin-4-yl)-5,8-diazaspiro[2.6]nonane-8-carbonyl]tetrahydropyran-4-carbonitrile]: the EC50 at JAK3 is 0.1 to 1 µM; at TYK2 it was over 1 µM; at JAK2 it was 0.1 to 1 µM; on JAK1, over 1 µM.

`O=C(c1ccc(S(=O)(=O)NCCc2cccs2)cc1)N1CCN(c2ncnc3[nH]ccc23)CC2(CC2)C1` [Example 50, 4-[5-(7H-pyrrolo[2,3-d]pyrimidin-4-yl)-5,8-diazaspiro[2.6]nonane-8-carbonyl]-N-[2-(2-thienyl)ethyl]benzenesulfonamide]: the EC50 is 0.1 to 1 µM on JAK3, over 1 µM at TYK2, 0.1 to 1 µM at JAK2 and 0.1 to 1 µM on JAK1.

As for `CS(=O)(=O)Nc1ccc(C(=O)N2CCN(c3ncnc4[nH]ccc34)CC3(CC3)C2)cc1` [Example 102, N-[4-[5-(7H-pyrrolo[2,3-d]pyrimidin-4-yl)-5,8-diazaspiro[2.6]nonane-8-carbonyl]phenyl]methanesulfonamide], the EC50 on JAK3 is 0.1 to 1 µM; on TYK2, over 1 µM; on JAK2, 0.1 to 1 µM; at JAK1 it was 0.1 to 1 µM.

For `COc1cc(C(=O)N2CCN(c3ncnc4[nH]ccc34)CC3(CC3)C2)ccc1S(N)(=O)=O` [Example 53, 2-methoxy-4-[5-(7H-pyrrolo[2,3-d]pyrimidin-4-yl)-5,8-diazaspiro[2.6]nonane-8-carbonyl]benzenesulfonamide], the EC50 on JAK3 is over 1 µM; on TYK2, over 1 µM; on JAK2, 0.1 to 1 µM; on JAK1 it was 0.1 to 1 µM.

Regarding `NS(=O)(=O)c1ccc(OCC(=O)N2CCN(c3ncnc4[nH]ccc34)CC3(CC3)C2)cc1` [Example 63, 4-[2-oxo-2-[5-(7H-pyrrolo[2,3-d]pyrimidin-4-yl)-5,8-diazaspiro[2.6]nonan-8-yl]ethoxy]benzenesulfonamide], the EC50 on JAK3, on TYK2, at JAK2 and at JAK1 was under 0.1 µM each time.

With `Nc1nonc1C(=O)N1CCCN(c2ncnc3[nH]ccc23)CC12CC2` [Example 256, (4-amino-1,2,5-oxadiazol-3-yl)-[5-(7H-pyrrolo[2,3-d]pyrimidin-4-yl)-5,9-diazaspiro[2.6]nonan-9-yl]methanone], the EC50 was under 0.1 µM on JAK3, 0.1 to 1 µM on TYK2, under 0.1 µM on JAK2 and under 0.1 µM at JAK1.

`N#CCOc1cccc(CC(=O)N2CCN(c3ncnc4[nH]ccc34)CC3(CC3)C2)c1` [Example 17, 2-[3-[2-oxo-2-[5-(7H-pyrrolo[2,3-d]pyrimidin-4-yl)-5,8-diazaspiro[2.6]nonan-8-yl]ethyl]phenoxy]acetonitrile]: the concentration giving a half-maximal response (EC50) was 0.1 to 1 µM at JAK3, over 1 µM at TYK2, 0.1 to 1 µM on JAK2 and 0.1 to 1 µM on JAK1.

With `S=C(CC1CCCC1)N1CCCN(c2ncnc3[nH]ccc23)CC12CC2` [Example 95, 2-cyclopentyl-1-[5-(7H-pyrrolo[2,3-d]pyrimidin-4-yl)-5,9-diazaspiro[2.6]nonan-9-yl]ethanethione], the EC50 is 0.1 to 1 µM at JAK3, over 1 µM at TYK2, 0.1 to 1 µM on JAK2 and under 0.1 µM at JAK1.

Turning to `O=C(Cc1cccs1)N1CCN(c2ncnc3[nH]ccc23)CC2(CC2)C1` [Example 30, 1-[5-(7H-pyrrolo[2,3-d]pyrimidin-4-yl)-5,8-diazaspiro[2.6]nonan-8-yl]-2-(2-thienyl)ethanone], the half-maximal effective concentration (EC50) at JAK3 was 0.1 to 1 µM; at TYK2, 0.1 to 1 µM; at JAK2, under 0.1 µM; on JAK1 it was under 0.1 µM.

In the case of `N#Cc1ccc(C(=O)N2CCN(c3ncnc4[nH]ccc34)CC3(CC3)C2)cc1F` [Example 42, 2-fluoro-4-[5-(7H-pyrrolo[2,3-d]pyrimidin-4-yl)-5,8-diazaspiro[2.6]nonane-8-carbonyl]benzonitrile], the EC50 was 0.1 to 1 µM on JAK3, over 1 µM on TYK2, 0.1 to 1 µM at JAK2 and 0.1 to 1 µM at JAK1.

Turning to `CC1CN(c2ncnc3[nH]ccc23)CC2(CC2)CN1C(=O)Nc1ccccc1` (stereo not drawn) [Example 99, 7-methyl-N-phenyl-5-(7H-pyrrolo[2,3-d]pyrimidin-4-yl)-5,8-diazaspiro[2.6]nonane-8-carboxamide], the half-maximal effective concentration (EC50) at JAK3, on TYK2, at JAK2 and at JAK1 was over 1 µM each time.

Turning to `Nc1nc(N2CCCN(Cc3ccccc3)C3(CC3)C2)c2cc[nH]c2n1` [Example 67, 4-(9-benzyl-5,9-diazaspiro[2.6]nonan-5-yl)-7H-pyrrolo[2,3-d]pyrimidin-2-amine], the EC50 at JAK3, at TYK2, on JAK2 and on JAK1 was over 1 µM in each case.

Take `O=C(Cc1ccc(-c2nn[nH]n2)cc1)N1CCN(c2ncnc3[nH]ccc23)CC2(CC2)C1` [Example 77, 1-[5-(7H-pyrrolo[2,3-d]pyrimidin-4-yl)-5,8-diazaspiro[2.6]nonan-8-yl]-2-[4-(2H-tetrazol-5-yl)phenyl]ethanone]: the EC50 at JAK3 was 0.1 to 1 µM; on TYK2 it was 0.1 to 1 µM; on JAK2, under 0.1 µM; at JAK1, under 0.1 µM.

Take `N#Cc1cccc(CC(=O)N2CCCN(c3ncnc4[nH]ccc34)CC23CC3)c1` [Example 58, 3-[2-oxo-2-[5-(7H-pyrrolo[2,3-d]pyrimidin-4-yl)-5,9-diazaspiro[2.6]nonan-9-yl]ethyl]benzonitrile]: the EC50 on JAK3, at TYK2, on JAK2 and on JAK1 was over 1 µM throughout.

For the molecule `CCCc1csc(C(=O)N2CCN(c3ncnc4[nH]ccc34)CC3(CC3)C2)c1` [Example 78, (4-propyl-2-thienyl)-[5-(7H-pyrrolo[2,3-d]pyrimidin-4-yl)-5,8-diazaspiro[2.6]nonan-8-yl]methanone], the EC50 was 0.1 to 1 µM at JAK3, over 1 µM at TYK2, 0.1 to 1 µM on JAK2 and 0.1 to 1 µM on JAK1.

In the case of `CCCCN1CCN(c2ncnc3[nH]ccc23)CC2(CC2)C1` [Example 279, 4-(5-butyl-5,8-diazaspiro[2.6]nonan-8-yl)-7H-pyrrolo[2,3-d]pyrimidine], the EC50 at JAK3, at TYK2, at JAK2 and at JAK1 was over 1 µM each time.
